The values that follow come from patent US11739098B2 (BRISTOL-MYERS SQUIBB COMPANY, priority 2017, dated 2023).

Type in all cases: cell-based
The target in one experiment is T1, human TLR7 (Homo sapiens, UniProt Q9NYK1).
T1 construct: host or cells: HEK-Blue cells (HEK293-derived reporter line)
T1 sequence (Q9NYK1 27-1049): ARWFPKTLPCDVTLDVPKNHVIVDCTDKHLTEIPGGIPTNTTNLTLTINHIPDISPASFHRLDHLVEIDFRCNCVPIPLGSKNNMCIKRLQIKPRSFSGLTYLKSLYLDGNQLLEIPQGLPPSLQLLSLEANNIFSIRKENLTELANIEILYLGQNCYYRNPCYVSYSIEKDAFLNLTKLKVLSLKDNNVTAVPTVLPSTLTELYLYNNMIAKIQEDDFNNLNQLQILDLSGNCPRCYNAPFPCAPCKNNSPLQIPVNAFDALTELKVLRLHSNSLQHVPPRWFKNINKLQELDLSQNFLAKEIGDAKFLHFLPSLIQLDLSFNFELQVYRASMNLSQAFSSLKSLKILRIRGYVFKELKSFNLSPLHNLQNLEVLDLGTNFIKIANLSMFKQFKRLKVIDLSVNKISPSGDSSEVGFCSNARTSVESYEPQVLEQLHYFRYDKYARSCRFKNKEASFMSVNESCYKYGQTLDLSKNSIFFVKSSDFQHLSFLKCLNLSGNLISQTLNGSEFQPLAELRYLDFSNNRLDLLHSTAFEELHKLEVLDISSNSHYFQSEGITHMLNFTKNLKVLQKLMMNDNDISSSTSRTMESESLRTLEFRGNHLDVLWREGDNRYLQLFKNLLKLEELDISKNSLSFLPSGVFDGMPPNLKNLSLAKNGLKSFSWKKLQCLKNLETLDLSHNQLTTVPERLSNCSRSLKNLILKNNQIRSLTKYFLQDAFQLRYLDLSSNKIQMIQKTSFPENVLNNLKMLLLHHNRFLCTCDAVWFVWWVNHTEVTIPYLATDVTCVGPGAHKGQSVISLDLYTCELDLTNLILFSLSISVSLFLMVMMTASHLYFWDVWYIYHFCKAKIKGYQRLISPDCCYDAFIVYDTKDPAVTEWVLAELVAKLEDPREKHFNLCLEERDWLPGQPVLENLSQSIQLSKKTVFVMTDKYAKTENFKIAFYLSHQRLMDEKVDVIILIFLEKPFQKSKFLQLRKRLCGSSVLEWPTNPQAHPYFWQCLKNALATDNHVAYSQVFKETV
Put plainly: TLR7 inhibition reporter assay (HEK-Blue cells, SEAP reporter, gardiquimod stimulation). As to conditions: HEK-Blue cells overexpressing human TLR7, SEAP reporter, gardiquimod 7.5 μM. The method in brief: (§1)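 HEK-Blue cells overexpressing human TLR7, TLR8 or TLR9 (NF-κB/AP-1-driven SEAP) pre-treated 30 min at room temperature with compound (0.05 nM–50 μM), then stimulated with gardiquimod 7.5 μM (TLR7), R848 15.9 μM (TLR8) or ODN2006 5 nM (TLR9). SEAP read colorimetrically after 22 h at 37 °C; % inhibition calculated.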
(In a reporter assay the amount or activity of a reporter protein is the signal.)

For a further experiment, the target named is T2, human TLR8 (Homo sapiens, UniProt Q9NR97).
T2 construct: host or cells: HEK-Blue cells (HEK293-derived reporter line)
T2 sequence (Q9NR97 27-1041): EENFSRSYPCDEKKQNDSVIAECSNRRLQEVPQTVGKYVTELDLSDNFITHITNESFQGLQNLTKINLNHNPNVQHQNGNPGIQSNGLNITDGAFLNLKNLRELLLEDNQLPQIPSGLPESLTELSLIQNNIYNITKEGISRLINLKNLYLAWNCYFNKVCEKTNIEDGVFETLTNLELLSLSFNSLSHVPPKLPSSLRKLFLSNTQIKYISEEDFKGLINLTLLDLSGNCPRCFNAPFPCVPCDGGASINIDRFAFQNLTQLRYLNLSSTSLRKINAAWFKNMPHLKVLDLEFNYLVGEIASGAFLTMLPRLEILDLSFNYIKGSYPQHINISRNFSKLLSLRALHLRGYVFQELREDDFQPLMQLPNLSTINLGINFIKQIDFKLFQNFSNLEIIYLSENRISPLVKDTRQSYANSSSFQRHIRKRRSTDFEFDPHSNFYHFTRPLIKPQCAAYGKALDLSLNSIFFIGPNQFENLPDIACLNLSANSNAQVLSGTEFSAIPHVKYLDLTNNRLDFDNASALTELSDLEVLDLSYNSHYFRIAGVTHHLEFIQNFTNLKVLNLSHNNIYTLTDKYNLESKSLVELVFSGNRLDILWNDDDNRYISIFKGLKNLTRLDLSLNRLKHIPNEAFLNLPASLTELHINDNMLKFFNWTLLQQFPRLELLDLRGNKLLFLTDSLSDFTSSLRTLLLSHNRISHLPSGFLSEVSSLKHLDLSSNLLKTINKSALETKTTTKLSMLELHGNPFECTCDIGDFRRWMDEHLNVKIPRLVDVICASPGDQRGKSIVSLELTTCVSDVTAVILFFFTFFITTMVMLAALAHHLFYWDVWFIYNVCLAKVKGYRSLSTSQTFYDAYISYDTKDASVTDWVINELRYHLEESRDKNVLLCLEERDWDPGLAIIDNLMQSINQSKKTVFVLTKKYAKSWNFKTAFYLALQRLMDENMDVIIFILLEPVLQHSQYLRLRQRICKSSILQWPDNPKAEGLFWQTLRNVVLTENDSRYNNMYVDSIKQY
Put plainly: TLR8 inhibition reporter assay (HEK-Blue cells, SEAP reporter, R848 stimulation). The note with it: HEK-Blue cells overexpressing human TLR8, SEAP reporter, R848 15.9 μM. A digest of the protocol:
as §1

The next experiment deals with T3, human TLR9 (Homo sapiens, UniProt Q9NR96).
T3 construct: host or cells: HEK-Blue cells (HEK293-derived reporter line)
T3 sequence (Q9NR96 26-1032): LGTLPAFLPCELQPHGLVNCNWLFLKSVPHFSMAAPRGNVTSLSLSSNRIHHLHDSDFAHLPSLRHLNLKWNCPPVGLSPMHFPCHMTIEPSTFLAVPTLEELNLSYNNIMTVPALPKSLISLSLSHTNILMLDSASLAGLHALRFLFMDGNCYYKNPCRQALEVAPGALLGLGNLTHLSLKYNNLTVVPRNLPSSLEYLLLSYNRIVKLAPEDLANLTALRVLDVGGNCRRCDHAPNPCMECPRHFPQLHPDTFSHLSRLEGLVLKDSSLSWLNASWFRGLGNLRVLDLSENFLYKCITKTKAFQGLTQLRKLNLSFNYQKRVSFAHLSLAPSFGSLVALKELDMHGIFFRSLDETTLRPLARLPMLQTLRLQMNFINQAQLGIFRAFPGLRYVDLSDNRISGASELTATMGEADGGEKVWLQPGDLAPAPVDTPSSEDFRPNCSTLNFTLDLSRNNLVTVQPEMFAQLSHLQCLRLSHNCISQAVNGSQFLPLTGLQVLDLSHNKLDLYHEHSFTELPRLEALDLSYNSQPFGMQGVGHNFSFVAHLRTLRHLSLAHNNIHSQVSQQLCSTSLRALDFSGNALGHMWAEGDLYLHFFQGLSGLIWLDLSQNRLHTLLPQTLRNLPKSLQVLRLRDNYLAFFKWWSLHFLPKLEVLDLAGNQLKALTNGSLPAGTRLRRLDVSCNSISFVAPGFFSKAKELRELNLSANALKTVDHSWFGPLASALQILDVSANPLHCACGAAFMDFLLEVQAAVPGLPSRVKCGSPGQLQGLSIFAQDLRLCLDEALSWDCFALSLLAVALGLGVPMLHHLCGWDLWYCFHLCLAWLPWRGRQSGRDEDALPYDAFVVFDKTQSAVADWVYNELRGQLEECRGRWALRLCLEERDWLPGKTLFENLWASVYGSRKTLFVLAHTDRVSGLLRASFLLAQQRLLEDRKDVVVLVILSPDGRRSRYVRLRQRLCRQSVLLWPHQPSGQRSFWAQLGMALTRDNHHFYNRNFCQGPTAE
Put plainly: TLR9 inhibition reporter assay (HEK-Blue cells, SEAP reporter, ODN2006 stimulation). As to conditions: HEK-Blue cells overexpressing human TLR9, SEAP reporter, ODN2006 5 nM. A digest of the protocol: as §1

Take `Cc1nc2c(C)cc(-c3[nH]c4ccc(C5CCN(C(=O)CN(C)C)CC5)cc4c3C(C)C)cn2c1C` [Example 527, 2-(dimethylamino)-1-(4-(3-isopropyl-2-(2,3,8-trimethylimidazo[1,2-a]pyridin-6-yl)-1H-indol-5-yl)piperidin-1-yl)ethan-1-one]: the concentration for half-maximal inhibition (IC50) (usually the concentration at which inhibition is half-maximal) is under 100 nM on human TLR7, 100 to 1000 nM against human TLR8 and 100 to 1000 nM on human TLR9.

For `Cc1cc(-c2[nH]c3ccc(C4CCN(C(=O)CN(C)C)CC4)cc3c2C(C)C)cn2ccnc12` [Example 528, 2-(dimethylamino)-1-(4-(3-isopropyl-2-(8-methylimidazo[1,2-a]pyridin-6-yl)-1H-indol-5-yl)piperidin-1-yl)ethan-1-one], the IC50 against human TLR7 was under 100 nM; at human TLR8, under 100 nM; on human TLR9, 100 to 1000 nM.

In the case of `Cc1cc(-c2[nH]c3ccc(C4CCN(C(=O)CN(C)C)CC4)cc3c2C(C)C)cc2cccnc12` [Example 529, 2-(dimethylamino)-1-(4-(3-isopropyl-2-(8-methylquinolin-6-yl)-1H-indol-5-yl)piperidin-1-yl) ethan-1-one], the IC50 against human TLR7 was under 100 nM; against human TLR8, under 100 nM; against human TLR9, 1000 to 50000 nM.

As to `CNCC(=O)N1CCC(c2ccc3[nH]c(-c4cc(C)n5cncc5c4)c(C(C)C)c3c2)CC1` [Example 530, 1-(4-(3-isopropyl-2-(5-methylimidazo[1,5-a]pyridin-7-yl)-1H-indol-5-yl)piperidin-1-yl)-2-(methylamino)ethan-1-one], the figures for the IC50 against human TLR7, on human TLR8 and at human TLR9 were under 100 nM, under 100 nM and 100 to 1000 nM, respectively.

`Cc1cc(-c2[nH]c3ccc(C4CCN(C(=O)CN(C)C)CC4)cc3c2C(C)C)cc2cncn12` [Example 531, 2-(dimethylamino)-1-(4-(3-isopropyl-2-(5-methylimidazo[1,5-a]pyridin-7-yl)-1H-indol-5-yl)piperidin-1-yl)ethan-1-one]: the concentration for half-maximal inhibition (IC50) is under 100 nM on human TLR7, under 100 nM at human TLR8 and 100 to 1000 nM at human TLR9.

With `COc1cc(-c2[nH]c3ccc(C4CCN(C(=O)CN(C)C)CC4)cc3c2C(C)C)cc2ncnn12` [Example 532, 2-(dimethylamino)-1-(4-(3-isopropyl-2-(5-methoxy-[1,2,4]triazolo[1,5-a]pyridin-7-yl)-1H-indol-5-yl)piperidin-1-yl)ethan-1-one], the 50% inhibitory concentration (IC50) was under 100 nM at human TLR7, under 100 nM against human TLR8 and 1000 to 50000 nM at human TLR9.

Regarding `Cc1cc(-c2[nH]c3ccc(C4CCN(C(=O)CN(C)C)CC4)cc3c2C(C)C)c2ccccc2n1` [Example 533, 2-(dimethylamino)-1-(4-(3-isopropyl-2-(2-methylquinolin-4-yl)-1H-indol-5-yl)piperidin-1-yl)ethan-1-one], the concentration for half-maximal inhibition (IC50) at human TLR7 is under 100 nM; on human TLR8, under 100 nM; on human TLR9 it was 100 to 1000 nM.

Regarding `CNCC(=O)N1CCC(c2ccc3[nH]c(-c4cc(C)nc5ccccc45)c(C(C)C)c3c2)CC1` [Example 534, 1-(4-(3-isopropyl-2-(2-methylquinolin-4-yl)-1H-indol-5-yl)piperidin-1-yl)-2-(methylamino)ethan-1-one], the IC50 against human TLR7 was under 100 nM; against human TLR8, under 100 nM; against human TLR9 it was 1000 to 50000 nM.

Take `Cc1cc2cc(-c3[nH]c4ccc(C5CCN(C(=O)CN(C)C)CC5)cc4c3C(C)C)ccn2n1` [Example 535, 2-(dimethylamino)-1-(4-(3-isopropyl-2-(2-methylpyrazolo[1,5-a]pyridin-5-yl)-1H-indol-5-yl)piperidin-1-yl)ethan-1-one]: the IC50 against human TLR7 fell in the range of 100 to 1000 nM; on human TLR8, 1000 to 50000 nM; against human TLR9, 1000 to 50000 nM.

Take `Cc1cc(-c2[nH]c3ccc(C4CCN(C(=O)CN(C)C)CC4)cc3c2C(C)C)cc2ncnn12` [Example 536, 2-(dimethylamino)-1-(4-(3-isopropyl-2-(5-methyl-[1,2,4]triazolo[1,5-a]pyridin-7-yl)-1H-indol-5-yl)piperidin-1-yl)ethan-1-one]: the half-inhibitory concentration (IC50) against human TLR7 was under 100 nM; on human TLR8 it was under 100 nM; at human TLR9 it was 1000 to 50000 nM.

In the case of `Cc1cc(-c2[nH]c3ccc(C4CCN(C(=O)[C@@H]5C[C@@H](O)CN5)CC4)cc3c2C(C)C)cc2ncnn12` [Example 537, ((2S,4R)-4-hydroxypyrrolidin-2-yl)(4-(3-isopropyl-2-(5-methyl-[1,2,4]triazolo[1,5-a]pyridin-7-yl)-1H-indol-5-yl)piperidin-1-yl)methanone], the IC50 on human TLR7 was under 100 nM; on human TLR8, under 100 nM; at human TLR9, 1000 to 50000 nM.

Take `Cc1nc2cc(-c3[nH]c4ccc(C5CCN(C(=O)CN(C)C)CC5)cc4c3C(C)C)ccn2n1` [Example 538, 2-(dimethylamino)-1-(4-(3-isopropyl-2-(2-methyl-[1,2,4]triazolo[1,5-a]pyridin-7-yl)-1H-indol-5-yl)piperidin-1-yl)ethan-1-one]: the half-inhibitory concentration (IC50) against human TLR7 is under 100 nM; against human TLR8, 100 to 1000 nM; against human TLR9, 1000 to 50000 nM.
